Our source for the TGI and GI50 values is PubChem BioAssay (NCI).

What all share (assay): DTP human tumour cell line panel, 48 h
In test [1] the test system is MOLT-4 leukemia.
For test [2], the system named is HS 578T breast.
Test [3] relates to HCT-116 colon.
Test [4] concerns SW-620 colon.
Test [5] deals with ACHN renal.
The test system of test [6] is RPMI-8226 leukemia.
In test [7] the test system is M14 melanoma.
Test [8] relates to SK-OV-3 ovarian.
Test [9] concerns SF-268 CNS.
Test [10] concerns LOX IMVI melanoma.

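96-well plates; 48 h exposure; 5 concentrations. Endpoints by linear interpolation between flanking doses. Not reached: highest tested concentration assigned. GI50: concentration for 50% inhibition of growth. TGI: concentration producing complete growth inhibition.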

Turning to `COc1ccccc1-c1cc(=O)c2ccc(C)nc2[nH]1`, the TGI in test [1], in test [2], in test [3], in test [4], in test [5] and in test [6] was over 100 µM each time. The TGI (usually the concentration at which net growth stops) was over 100 µM in test [7], over 100 µM in test [8], over 100 µM in test [9] and over 100000 nM in [10]. The GI50 (usually the concentration giving 50% growth inhibition) in test [3] is 37600 nM.
For `O=C(/C=C/c1ccccc1)CC(c1ccccc1)N1CCOCC1` (stereo unspecified), the GI50 in test [1] was 3120 nM; in test [2], 4.25 µM; in test [3], 1150 nM; in test [4], 2330 nM; in test [5] it was 2030 nM; in test [6], 1980 nM. The GI50 is 1790 nM in [7], 14.4 µM in [8], 5.07 µM in test [9] and 371 nM in [10]. For the same compound, the TGI in test [1] is 9.87 µM; in [2], 55 µM; in test [3], 2.37 µM; in test [4] it was 4.91 µM; in [5], 4.4 µM; in test [6], 5.21 µM. For the same compound, the TGI in [7] was 3.41 µM; in test [8], 30.7 µM; in [9], 19.3 µM; in test [10], 1360 nM.
As to `C[C@H](Cn1ncnn1)Nc1ncc2cc(Oc3ccc(F)cc3F)c(=O)n(C)c2n1`, the GI50 in [1] is over 25000 nM; in test [2], over 25 µM; in [3], over 25000 nM; in test [4], over 25000 nM; in test [5], over 25000 nM; in test [6] it was over 25000 nM. Besides, the GI50 in test [7] is over 25000 nM; in [8], over 25 µM; in test [9], over 25 µM; in [10], over 25000 nM. Further, the TGI in [1], in [2], in test [3], in test [4], in [5] and in test [6] was over 25 µM each time. The TGI was over 25 µM in [7], over 25 µM in [8], over 25 µM in [9] and over 25000 nM in test [10].
On to `CN(C)Cc1c[nH]c2c(NCCN)c3c(c(NCCN)c12)C(=O)c1ccccc1C3=O`, for which the GI50 was 1700 nM in test [1]; 3.38 µM in [2]; 625 nM in [3]; 2350 nM in test [4]; 2120 nM in test [5]; 1430 nM in [6]. In addition, the GI50 in [7] was 3510 nM; in [8] it was 8.67 µM; in test [9] it was 3.65 µM; in test [10], 556 nM. Moreover, the TGI in test [1] was over 35.7 µM; in [2], 10.9 µM; in test [3], 5.29 µM; in test [4], 7.87 µM; in test [5], 9.04 µM; in test [6], 6.52 µM. Also, the TGI came to 16.9 µM in test [7], 24.1 µM in [8], 14.7 µM in [9] and 1880 nM in test [10].
Consider `OB1OCc2cc(/C=C/c3cccc(C(F)(F)F)c3)ccc21`, for which the GI50 in [1] was 454 nM; in [2], 4.49 µM; in [3], 890 nM; in test [4], 1570 nM; in test [5], 332 nM; in test [6], 2380 nM. Moreover, the GI50 in test [7] is 653 nM; in test [8], 2.9 µM; in test [9], 0.564 µM; in [10], 302 nM. In addition, the TGI was 12.9 µM in test [1]; 66.6 µM in test [2]; 11.8 µM in test [3]; over 100 µM in [4]; 1.34 µM in test [5]; over 100 µM in test [6]. In addition, the TGI in [7] turned out to be 35.3 µM; in test [8], 63.5 µM; in test [9] it was 48.1 µM; in test [10], 1250 nM.
Regarding `Cc1cc(Nc2nc(SCc3ccc(C(=O)Nc4ccc(F)cc4N)cc3)nn3cccc23)n[nH]1`, the GI50 was 508 nM in [1]; 0.429 µM in test [2]; 494 nM in [3]; 426 nM in [4]; 1240 nM in [5]; 514 nM in [6]. Besides, the GI50 in test [7] is 289 nM; in test [8], 0.339 µM; in test [9], 1.12 µM; in test [10] it was 665 nM. Besides, the TGI in test [1] was 13.5 µM; in [2], over 100 µM; in test [3], 20.4 µM; in test [4], over 100 µM; in test [5], 13 µM; in test [6] it was 3.72 µM. The TGI in test [7] was 15.7 µM; in test [8], 4.61 µM; in test [9] it was over 100 µM; in test [10] it was over 100000 nM.
